# Results as given in patent publication US9598365B2, “Method for synthesizing cycloalkanyl[b]indoles, cycloalkanyl[b]benzofurans, cycloalkanyl[b]benzothiophenes, compounds and methods of use” (Trustees of Dartmouth College, priority 2012, dated 2017).
# “And” between values parts separate entries of the source, which are not always exact repeats. Equal entries are not always repeated.
# Assays:
# Format in all cases: cell-based
# hNCI-H716 [1] = experiment: hNCI-H716 GLP-1 secretion; details: GLP-1 secretion; for activation at 2 µM / activation at 20 µM / Primary SP hNCI (% Stim.): single point; for activation at 2 µM / activation at 20 µM: read-out: Primary SP hNCI (% Stim.); for EC50: concentration response curve, read-out: Primary CRC (EC50, μM) hNCI
# From the text: Selected compounds of this invention were screened for K-Ras Wnt synthetic lethal, anti-angiogenic activity, Wnt pathway modulatory activity, insulin and GLP-1 secretion modulatory activity, GPR119 receptor agonist activity, mGlu2R antagonist activity, CGRP receptor antagonist activity, Apelin receptor agonist activity and hexokinase 2 inhibitory activity using the PD^2 and TD^2 Screening Panel (Eli Lilly & Company). See Lee, et al. (2011) J. Biomol. Screen. 16:588-602.
# (§1) In light of the above results, additional compounds (Table 7) were prepared and phenotypic assays were carried out using hNCI-H716 and mSTC-1 cell lines to monitor GLP-1 secretion (single point (SP) and concentration response curves (CRC)) (Table 8), as well as a secondary assay with pituitary cells (Table 9).
# mSTC-1 [2] = experiment: mSTC-1 GLP-1 secretion; details: for activation at 2 µM / activation at 20 µM: single point, read-out: Primary SP mSTC (% Stim.); for EC50: concentration response curve, read-out: Primary CRC (EC50, μM) mSTC
# Procedure: as §1
# mSTC-1 [3] = experiment: mSTC LDH secretion; details: read-out: Primary CRC (EC50, μM) mSTC LDH
# Procedure: as §1
# hNCI-H716 [4] = experiment: hNCI basal LDH secretion; details: read-out: Primary CRC (EC50, μM) hNCI Basal
# Procedure: as §1
SMILES,activation at 2 µM (hNCI-H716 [1]; 2 μM) [%],activation at 20 µM (hNCI-H716 [1]; 20 μM) [%],activation at 2 µM (mSTC-1 [2]) [%],activation at 20 µM (mSTC-1 [2]) [%],also measured
O=C1C2CCC1[C@@]1(CCO)c3ccccc3N[C@@H]21 (stereo partly shown) [Compound 21],4.3,3.4,-1,-2.4,
CC1=C(C)CC2(CCCCC2)c2c(n(C)c3ccccc23)C1 [Compound 11l],-2,-3.3,,,
Cn1c2c(c3ccccc31)C1(CCCCC1)[C@@H]1C=C[C@H]2CC1 [Compound 11k],3.1,-1.9,,,
Cn1c2c(c3ccccc31)[C@@H](c1ccc(C(F)(F)F)cc1)[C@@H]1C=C[C@H]2C1 (racemic) [Compound 11c],,,,,Primary SP hNCI (% Stim.) (hNCI-H716 [1]; 2 μM): 1%; Primary SP hNCI (% Stim.) (hNCI-H716 [1]; 20 μM): 0.7%
CC1(C)c2c(n(Cc3ccccc3)c3ccccc23)[C@H]2C=C[C@@H]1C2 [Compound 11o],-0.3,-2.1,,,
O=C1OC2CCC1[C@]13CCN[C@]21Nc1ccccc13 (stereo partly shown) [Compound 27],1,0.4,-5.1,-3.9,
CC(=O)Oc1ccc(C2CC3(CCCCC3)c3c2[nH]c2ccccc32)cc1 (stereo not shown) [Compound 19i],0,23.4,13.5,104,EC50 (hNCI-H716 [1]): > 40 µM; EC50 (mSTC-1 [2]): > 40 µM
Cn1c2c(c3ccccc31)[C@@H](c1ccco1)[C@@H]1C=C[C@H]2C1 [Compound 11d],-2.5,-1,,,
CC1=CCc2c(c3ccccc3n2C)C(c2ccccc2)C1 (stereo not shown) [Compound 11m],-2.2,-1,,,
CC1(C)c2c([nH]c3ccc(F)cc23)C2C=CC1C2 (stereo not shown) [Compound 11w],1.4,41.3,,,EC50 (hNCI-H716 [1]): 22.4 µM and 30.3 µM; EC50 (mSTC-1 [2]): 23.6 µM and 22.8 µM
Cn1c2c(c3ccccc31)[C@@H](c1ccccc1)[C@@H]1C=C[C@H]2C1 [Compound 11a],-2.8,-0.5,,,
CN1c2ccccc2[C@]2(C)C3CCC(C3=O)[C@H]12 (stereo partly shown) [Compound 23],6.4,-1.1,6.9,71.3,EC50 (hNCI-H716 [1]): > 40 µM; EC50 (mSTC-1 [2]): 6.18 µM; EC50 (mSTC-1 [3]): > 40 µM; EC50 (hNCI-H716 [4]): > 40 µM
O=C1OC2CCC1[C@]13CCO[C@]21Nc1ccccc13 (stereo partly shown) [Compound 28],1.2,4,-2.4,4.4,
COc1ccc(C2CC3(CCCC3)c3c2n(C)c2ccccc32)cc1 (stereo not shown) [Compound 19v],-2,-2.4,,,
Cc1ccc(C2CC(C)(C)c3c2[nH]c2ccc(C)cc32)cc1 (stereo not shown) [Compound 19d],0,0,10.3,53.6,
CC1(C)c2c([nH]c3ccccc23)C2C=CC1C2 (stereo not shown) [Compound 11p],,,,,Primary SP hNCI (% Stim.) (hNCI-H716 [1]; 2 μM): −0.5%; Primary SP hNCI (% Stim.) (hNCI-H716 [1]; 20 μM): 23.3%
CC[C@@H]1c2c(n(C)c3ccccc23)[C@H]2C=C[C@@H]1C2 [Compound 11f],-1.1,-2.4,,,
COC(=O)[C@@H]1CC[C@H](O)[C@@]2(C)c3ccccc3N(C)[C@@H]12 [Compound 26],1.4,-1.3,-2.4,-3.1,
COc1ccc2[nH]c3c(c2c1)C(C)(C)C1C=CC3C1 (stereo not shown) [Compound 11q],,,,,Primary SP hNCI (% Stim.) (hNCI-H716 [1]; 2 μM): 1.3%; Primary SP hNCI (% Stim.) (hNCI-H716 [1]; 20 μM): 5.9%
CC1(C)C(=O)C[C@]23CCCC[C@]12Nc1ccccc13 [Compound 20],-0.2,-1.1,-4.1,8.2,

SMILES,activation at 2 µM (hNCI-H716 [1]; 2 μM) [%],activation at 20 µM (hNCI-H716 [1]; 20 μM) [%],activation at 2 µM (mSTC-1 [2]) [%],activation at 20 µM (mSTC-1 [2]) [%],also measured
Cn1c2c(c3ccccc31)C(C)(C)[C@@H]1C=C[C@H]2C1 [Compound 11g],-0.8,-2.7,,,
Cc1ccc(C2CC3(CCCC3)c3c2n(C)c2ccccc32)cc1 (stereo not shown) [Compound 19w],-0.8,-1.9,,,
CC1(C)C(=O)C[C@]23CCCC[C@]12N(Cc1ccccc1)c1ccccc13 [Compound 25],0.6,-1.1,78.5,51.1,EC50 (hNCI-H716 [1]): > 40 µM; EC50 (mSTC-1 [2]): 0.2 µM; EC50 (mSTC-1 [3]): > 40 µM; EC50 (hNCI-H716 [4]): > 40 µM
COc1ccc([C@@H]2c3c(n(C)c4ccccc34)[C@H]3C=C[C@@H]2C3)cc1 (racemic) [Compound 11b],,,,,Primary SP hNCI (% Stim.) (hNCI-H716 [1]; 2 μM): −0.5%; Primary SP hNCI (% Stim.) (hNCI-H716 [1]; 20 μM): −2.4%
CC1C=CC(C)C(c2ccccc2)c2c1n(C)c1ccccc21 (stereo not shown) [Compound 11n],10.3,-3.5,,,
COC(=O)c1ccc2[nH]c3c(c2c1)C(C)(C)C1C=CC3C1 (stereo not shown) [Compound 11r],,,,,Primary SP hNCI (% Stim.) (hNCI-H716 [1]; 2 μM): −1.1%; Primary SP hNCI (% Stim.) (hNCI-H716 [1]; 20 μM): 13.4%
Cn1c2c(c3ccccc31)[C@@H](c1cccs1)[C@@H]1C=C[C@H]2C1 [Compound 11e],-0.5,-2.4,,,
CC1(C)C(=O)C[C@@]2(C)c3ccccc3N(Cc3ccccc3)[C@@]12C [Compound 30],3.1,-0.2,49.9,49.9,EC50 (hNCI-H716 [1]): > 40 µM; EC50 (mSTC-1 [2]): 0.85 µM and 0.51 µM; EC50 (mSTC-1 [3]): > 40 µM; EC50 (hNCI-H716 [4]): > 40 µM
Cn1c2c(c3ccccc31)C1(CCCCC1)[C@@H]1C=C[C@H]2C1 [Compound 11j],-0.3,-3.3,,,
c1ccc(C2CC3(CCCCC3)c3c2[nH]c2ccccc32)cc1 (stereo not shown) [Compound 19e],0,0,78.4,109,
CC1(C)c2c([nH]c3ccc(C(F)(F)F)cc23)C2C=CC1C2 (stereo not shown) [Compound 11y],-0.4,55.9,,,EC50 (mSTC-1 [2]): 10.4 µM and 5.88 µM
Cc1ccc(C2CC(C)(C)c3c2[nH]c2ccccc32)cc1 (stereo not shown) [Compound 19h],0,0,93.2,107,
O=C1C2CCC1[C@@]1(CCO)c3ccccc3N(Cc3ccccc3)[C@@H]21 (stereo partly shown) [Compound 24],1,4.6,-3.3,47.9,EC50 (hNCI-H716 [1]): > 40 µM; EC50 (mSTC-1 [2]): 15.2 µM and 13.5 µM; EC50 (mSTC-1 [3]): > 40 µM; EC50 (hNCI-H716 [4]): > 40 µM
Cn1c2c(c3ccccc31)C1(CCCC1)CC2c1ccccc1 (stereo not shown) [Compound 19u],-0.8,-3.8,,,
Cn1c2c(c3ccccc31)C1(CCC1)[C@@H]1C=C[C@H]2C1 [Compound 11h],-2.2,-3.3,,,
C[C@]12c3ccccc3N[C@H]1C1CCC2C1=O (stereo partly shown) [Compound 22],-1.5,-1.3,-1.8,7.4,
Cc1ccc(C2CC3(CCCCC3)c3c2[nH]c2ccc(C)cc32)cc1 (stereo not shown) [Compound 19g],0,0,34.9,124,
Cn1c2c(c3ccccc31)C1(CCCC1)[C@@H]1C=C[C@H]2C1 [Compound 11i],0,-6,,,
CC1(C)c2c([nH]c3ccc(O)cc23)C2C=CC1C2 (stereo not shown) [Compound 11x],3.4,-0.8,,,EC50 (hNCI-H716 [1]): > 40 µM; EC50 (mSTC-1 [2]): > 40 µM
Cn1c2c(c3ccccc31)C1(CCCC1)CC2c1ccc2ccccc2c1 (stereo not shown) [Compound 19x],-3.1,-3.3,,,
